Each structure is given as a SMILES string. Where a name gives a salt, the structure may show the parent alone. Read-outs that look alike come from different tables or passages of the source.

What is called EC50 is the concentration giving half of the maximal effect.

For data set [1] the following is noted: rcm bond, Grubbs 2nd generation catalyst, dichloromethane, 25.0 °C.
For another data set, the target named is MCL-1 (Homo sapiens, UniProt Q07820). The data set can be described thus: Protein-protein interaction assay MCL-1/Noxa BH3 peptide (MCL-1 assay), TR-FRET. The class given is binding. To be noted: MBP-MCL-1 / Noxa BH3-derived peptide, median. The method in brief: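 Displacement of the biotinylated Noxa BH3 peptide from MBP-tagged human MCL-1 (1 nM) is detected by time-resolved FRET. Compounds are tested in duplicate across eleven concentrations up to 20 μM, incubated 1 h at 22 °C and overnight at 4 °C, and IC50 is fitted with a four-parameter equation.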
Chain of MCL-1 (Q07820 whole entry): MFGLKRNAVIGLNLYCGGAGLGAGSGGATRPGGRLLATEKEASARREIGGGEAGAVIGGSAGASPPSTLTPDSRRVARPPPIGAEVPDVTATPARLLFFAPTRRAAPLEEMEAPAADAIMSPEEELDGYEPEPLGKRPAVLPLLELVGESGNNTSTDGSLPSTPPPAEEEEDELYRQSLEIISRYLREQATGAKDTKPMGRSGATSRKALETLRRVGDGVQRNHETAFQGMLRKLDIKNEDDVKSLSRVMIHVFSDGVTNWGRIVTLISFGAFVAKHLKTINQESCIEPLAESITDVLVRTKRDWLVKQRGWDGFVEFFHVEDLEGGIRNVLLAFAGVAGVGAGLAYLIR
In general terms: In TR-FRET formats the signal depends on donor and acceptor labels being close together.

The subject of data set [2] is SUDHL5. The data set can be described thus: Induction of caspase-3/7 activity (Caspase-Glo 3/7), SUDHL5. The class given is cell-based. The settings on record: caspase-3/7 induction, SUDHL5 cells, 3 h treatment; median. The method in brief:
(§1)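 Caspase-Glo 3/7 luminescence, 3 h compound exposure, 37 °C, humidified. Minus medium-only blank. EC50 fit: C0=1, plateau = reference max induction.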

Data set [3] relates to SUDHL10. The data set can be described thus: Induction of caspase-3/7 activity (Caspase-Glo 3/7), SUDHL10. The class given is cell-based. To be noted: caspase-3/7 induction, SUDHL10 cells, 3 h treatment; median. In short, it runs like this: as §1
Data set [4] relates to SUDHL5. The data set can be described thus: Anti-proliferative effect (CellTiter-Glo, 72 h), SUDHL5. The class given is cell-based. The settings on record: SUDHL5 cells, antiproliferation, median, read-out: Antiproli SUDHL5 [M] (median). The method in brief: (§2)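 Viable cells quantified with CellTiter-Glo after 72 h at 37 °C; rim wells excluded; day 0 plate as baseline.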
The next data set concerns A2780. Put plainly: Anti-proliferative effect (CellTiter-Glo, 72 h), A2780. The class given is cell-based. The settings on record: Homo sapiens, A2780, 72 h, A2780 cells, median, read-out: IC50 antiproliferation assay A2780 [M] (median). In short, it runs like this: as §2
On the technique in general: ATP-based viability assays read luminescence as a measure of living cells.

The next data set has as its system MV-4-11. Put plainly: Anti-proliferative effect (CellTiter-Glo, 72 h), MV-4-11. To be noted: MV-4-11 cells, median, read-out: IC50 antiproliferation assay MV-4-11 [M] (median). The class given is cell-based. The method in brief: as §2
In another data set the test system is SK-MEL-2. The data set can be described thus: Anti-proliferative effect (CellTiter-Glo, 72 h), SK-MEL-2. The class given is cell-based. To be noted: Homo sapiens, SK-MEL-2 cells, median, read-out: IC50 antiproliferation assay SK-MEL-2 [M] (median). On the procedure:
Assessment of the Anti-Proliferative Effect of Compounds in Different Cell Lines
(§3) The impact of compounds on the proliferation of different cell lines was assessed using the CellTiter-Glo® Luminescent Cell Viability reagent from Promega (G7573). Of note, SUDHL10 and SUDHL5 (DLBCL), NCI-H929 (Multiple Myeloma), A2780 (ovarian carcinoma) as well as MV-4-11(AML) cells are sensitive to MCL-1 inhibition.
(§4) In parallel, cells were plated in a reference (day 0) plate for time zero determination.
(§5) Rim wells were excluded. The cells were incubated for 72 h hours in a humidified incubator at 37° C. The day 0 plate was measured by adding 30 μl/well of CTG solution (CellTiter-Glo® Luminescent Cell Viability reagent, Promega G7573) to time zero wells in the reference plate followed by a 10 minutes incubation and luminescence reading at 0.1 ms, using the PHERAstar FS microplate reader (BMG Labtech).
(§6) After 72 h incubation, the treated plates were measured in the same way as the day 0 plate mentioned above.

Another data set relates to NCI-H1703. Put plainly: Anti-proliferative effect (CellTiter-Glo, 72 h), NCI-H1703. The class given is cell-based. To be noted: Homo sapiens, NCI-H1703 cells, median, read-out: IC50 antiproliferation assay NCI-H1703 [M] (median). On the procedure:
as §3, §4, §5, §6

Data set [5] has as its system SUDHL5. Put plainly: Induction of cytotoxicity (CellTiter-Glo, 5 h), SUDHL5. The settings on record: read-out: Cytotox SUDHL5 [M] (median), SUDHL5 cells, cytotoxicity induction, CellTiter-Glo, median.
For data set [6], the system named is SUDHL10. The data set can be described thus: Induction of cytotoxicity (CellTiter-Glo, 5 h), SUDHL10. To be noted: read-out: Cytotox SUDHL10 [M] (median), SUDHL10 cells, cytotoxicity induction, CellTiter-Glo, median.

In turn, `CCOC(=O)c1c(CCCO[Si](C)(C)C(C)(C)C)c2cccc3c2n1CC=CCOCc1c-3c(C)nn1C` (mixture of isomers) registered a ring closure, yield of all isomers in [1] (from C=CCOCc1c(-c2cccc3c(CCCO[Si](C)(C)C(C)(C)C)c(C(=O)OCC)n(CC=C)c23)c(C)nn1C, 48.0 mM, 16.0 h) of 52.7%.

As to `CCOC(=O)c1c(CCCOc2cccc3ccccc23)c2cccc3c2n1CC=CCOCc1c-3c(CN2CCOCC2)nn1C` (mixture of isomers), in data set [1] (from C=CCOCc1c(-c2cccc3c(CCCOc4cccc5ccccc45)c(C(=O)OCC)n(CC=C)c23)c(CN2CCOCC2)nn1C, 79.5 mM, 48.0 h), the ring closure, yield of all isomers is 14.2%.

Turning to `CCOC(=O)c1c(CCCOc2cccc3ccccc23)c2cccc3c2n1CC=CCOCc1c-3c(COCc2ccccc2)nn1C` (mixture of isomers), in data set [1] (from C=CCOCc1c(-c2cccc3c(CCCOc4cccc5ccccc45)c(C(=O)OCC)n(CC=C)c23)c(COCc2ccccc2)nn1C, 76.8 mM, 72.0 h), the ring closure, yield of all isomers is 74.2%.

Turning to `CCOC(=O)c1c(CCCOc2cccc3ccccc23)c2cccc3c2n1CC=CCOCc1c-3c(COc2ccc(C3(O)CCOCC3)cc2)nn1C` (mixture of isomers), in data set [1] (from C=CCOCc1c(-c2cccc3c(CCCOc4cccc5ccccc45)c(C(=O)OCC)n(CC=C)c23)c(COc2ccc(C3(O)CCOCC3)cc2)nn1C, 80.0 mM, 72.0 h), the ring closure, yield of all isomers stood at 66.1%.

Molecule `CCOC(=O)c1c(CCCOc2cccc3ccccc23)c2cccc3c2n1CC=CCOCc1c-3c(COc2ccc(C3(OC)CCOCC3)cc2)nn1C` (mixture of isomers) came in with a ring closure, yield of all isomers in data set [1] (from C=CCOCc1c(-c2cccc3c(CCCOc4cccc5ccccc45)c(C(=O)OCC)n(CC=C)c23)c(COc2ccc(C3(OC)CCOCC3)cc2)nn1C, 78.4 mM, 72.0 h) of 39.1%.

As for `CCOC(=O)c1c(CCCOc2cccc3ccccc23)c2cccc3c2n1CC=CCOCc1c-3c(COc2ccc(N3CCOCC3)cc2)nn1C` (mixture of isomers), the ring closure, yield of all isomers in [1] (from C=CCOCc1c(-c2cccc3c(CCCOc4cccc5ccccc45)c(C(=O)OCC)n(CC=C)c23)c(COc2ccc(N3CCOCC3)cc2)nn1C, 39.1 mM, 44.0 h) came out at 53.3%.

Regarding `CCOC(=O)c1c(CCCOc2cccc3ccccc23)c2cccc3c2n1CC=CCOCc1c-3c(COc2ccccc2)nn1C` (mixture of isomers), in data set [1] (from C=CCOCc1c(-c2cccc3c(CCCOc4cccc5ccccc45)c(C(=O)OCC)n(CC=C)c23)c(COc2ccccc2)nn1C, 78.3 mM, 24.0 h), the ring closure, yield of all isomers worked out at 56.9%.

Consider `CCOC(=O)c1c(CCCOc2cccc3ccccc23)c2cccc3c2n1CC=CCOCc1c-3cnn1C` (mixture of isomers), for which the ring closure, yield of all isomers in data set [1] (from C=CCOCc1c(-c2cccc3c(CCCOc4cccc5ccccc45)c(C(=O)OCC)n(CC=C)c23)cnn1C, 78.2 mM, 24.0 h) was 42.1%.

In [1] (from C=CCOCc1nn(C)c(C)c1-c1cccc2c(CCCOc3cccc4ccccc34)c(C(=O)OCC)n(CC=C)c12, 77.8 mM, 16.0 h), `CCOC(=O)c1c(CCCOc2cccc3ccccc23)c2cccc3c2n1CC=CCOCc1nn(C)c(C)c1-3` (mixture of isomers) yielded a ring closure, yield of all isomers of 15%.

In turn, `CCOCc1nn(C)c2c1-c1cccc3c(CCCOc4cccc5ccccc45)c(C(=O)OCC)n(c13)CC=CCOC2` (mixture of isomers) came in with a ring closure, yield of all isomers in [1] (from C=CCOCc1c(-c2cccc3c(CCCOc4cccc5ccccc45)c(C(=O)OCC)n(CC=C)c23)c(COCC)nn1C, 76.0 mM, 24.0 h) of 47.3%.

For `CCc1nn(C)c2c1-c1c(C)ccc3c(CCCOc4cccc5cc(F)ccc45)c(C(=O)O)n(c13)CCCCOC2` (single isomer, unassigned) [Example 267, (+)-3-ethyl-7-{3-[(6-fluoronaphthalen-1-yl)oxy]propyl}-1,4-dimethyl-1,10,11,12,13,15-hexahydropyrazolo[4′,3′:9,10][1,6]oxazacycloundecino[8,7,6-hi]indole-8-carboxylic Acid], the IC50 was 0.37 nM against MCL-1; 1.89e-06 M with SUDHL5 [4] (72 h incubation); 2.15e-05 M in the data set on A2780; 7.02e-06 M in the data set with MV-4-11 (Homo sapiens, MV4-11, 72 h); 2e-05 M in the data set with SK-MEL-2; 1.36e-05 M with NCI-H1703. Besides, the IC50 in the data set with SUDHL5 [5] (5 h incubation) came to 1.11e-06 M; in the data set on SUDHL10 [6] (5 h incubation) it was 3.66e-06 M. For the same molecule, the EC50 amounted to 1140 nM in the data set with SUDHL5 [2] and 4600 nM in the data set with SUDHL10 [3].

For the molecule `CCc1c2c(nn1C)COCCCCn1c(C(=O)O)c(CCCOc3cccc4cc(F)ccc34)c3cccc-2c31` (single isomer, unassigned) [Example 282, (+)-3-ethyl-7-{3-[(6-fluoronaphthalen-1-yl)oxy]propyl}-2-methyl-2,10,11,12,13,15-hexahydropyrazolo[4′,3′:9,10][1,6]oxazacycloundecino[8,7,6-hi]indole-8-carboxylic acid-N-ethylethanamine Salt], the IC50 against MCL-1 stood at 1.09 nM; in the data set with SUDHL5 [4] (72 h incubation), 5.78e-07 M; in the data set on A2780 it was 8.66e-06 M; with MV-4-11, 3.69e-06 M; in the data set on SK-MEL-2 it was 1.25e-05 M; in the data set with NCI-H1703, 4.85e-06 M. Further, the IC50 with SUDHL5 [5] (5 h incubation) came out at 6.16e-07 M; in the data set with SUDHL10 [6] (5 h incubation) it was 7.8e-07 M. In addition, the EC50 came to 385 nM in the data set on SUDHL5 [2] and 906 nM with SUDHL10 [3].

As to `Cc1c2c(nn1CCN1CCOCC1)COCCCCn1c(C(=O)O)c(CCCOc3cccc4cc(F)ccc34)c3cccc-2c31` (single isomer, unassigned) [Example 285, (+)-7-{3-[(6-fluoronaphthalen-1-yl)oxy]propyl}-3-methyl-2-[2-(morpholin-4-yl)ethyl]-2,10,11,12,13,15-hexahydropyrazolo[4′,3′:9,10][1,6]oxazacycloundecino[8,7,6-hi]indole-8-carboxylic acid-N-ethylethanamine Salt], the IC50 against MCL-1 was found to be 0.782 nM; in the data set with SUDHL5 [4] (72 h incubation), 9.39e-07 M; with A2780, 1.22e-05 M; in the data set with MV-4-11, 3.61e-06 M; with SK-MEL-2, 1.09e-05 M; in the data set with NCI-H1703 it was 6.98e-06 M. Also, the IC50 in the data set with SUDHL5 [5] (5 h incubation) is 7.5e-07 M; in the data set on SUDHL10 [6] (5 h incubation), 2.81e-06 M. Also, the EC50 in the data set with SUDHL5 [2] worked out at 646 nM; with SUDHL10 [3], 1410 nM.

In the case of `CCc1nn(C)c2c1-c1cccc3c(CCCOc4cccc5cc(F)ccc45)c(C(=O)O)n(c13)CCCCOC2` (single isomer, unassigned) [Example 288, (+)-3-ethyl-7-{3-[(6-fluoronaphthalen-1-yl)oxy]propyl}-1-methyl-1,10,11,12,13,15-hexahydropyrazolo[4′,3′:9,10][1,6]oxazacycloundecino[8,7,6-hi]indole-8-carboxylic Acid], the IC50 is 1.49 nM at MCL-1; 1.54e-06 M in the data set on SUDHL5 [4] (72 h); > 3.3e-05 M in the data set with A2780; 9.86e-06 M in the data set with MV-4-11 (Homo sapiens, MV4-11, 72 h); > 3.3e-05 M with SK-MEL-2; 1.76e-05 M in the data set on NCI-H1703. For the same molecule, the IC50 came to 1.68e-06 M in the data set on SUDHL5 [5] (5 h) and 6.54e-06 M in the data set on SUDHL10 [6] (5 h). The EC50 in the data set on SUDHL5 [2] came to 1570 nM; with SUDHL10 [3], 5850 nM.

The values are drawn from patent US10981932B2, “Macrocyclic indole derivatives” (Bayer Aktiengesellschaft, priority 2016, dated 2021).
